# Test results reported in patent US20210395248A1, “INHIBITORS OF HUMAN IMMUNODEFICIENCY VIRUS REPLICATION” (ViiV HEALTHCARE UK (NO.5) LIMITED, priority 2018, published 2021).
# Assays:
# [1] = Compound cytotoxicity, XTT-based colorimetric assay; type: cell-based; conditions: human; uninfected MT2 cells, day 4, XTT; read-out: CC50
# Method: Compound cytotoxicity and the corresponding CC50 values were determined using the same protocol as described in the antiviral assay except that uninfected cells were used. Cytotoxicity was assessed on day 4 in uninfected MT2 cells by using a XTT (2,3-bis [2-Methoxy-4-nitro-5-sulfophenyl]-2H-tetrazolium-5-carboxyanilide inner salt)-based colorimetric assay (Sigma-Aldrich, St Louis, Mo.).
# [2] = test system: recombinant NL4-3 virus (Renilla luciferase reporter) in MT-2 cells; assay: HIV cell culture assay (antiviral activity, luciferase readout in infected MT-2 cells); type: cell-based; conditions: NL43
# Method: HIV cell culture assay—MT-2 cells, 293T cells and the proviral DNA clone of NL4-3 virus were obtained from the NIH AIDS Research and Reference Reagent Program. MT-2 cells were propagated in RPMI 1640 media supplemented with 10% heat inactivated fetal bovine serum (FBS), […]. The 293T cells were propagated in DMEM media supplemented with 10% heat inactivated FBS, […]. A recombinant NL4-3 proviral clone, in which a section of the nef gene was replaced with the Renilla luciferase gene, was used to make the reference virus used in these studies. The recombinant virus was prepared through transfection of the recombinant NL4-3 proviral clone into 293T cells using Transit-293 Transfection Reagent from Mirus Bio LLC (Madison, Wis.). Supernatent was harvested after 2-3 days and the amount of virus present was titered in MT-2 cells using luciferase enzyme activity as a marker by measuring luciferase enzyme activity. Luciferase was quantitated using the EnduRen Live Cell Substrate from Promega (Madison, Wis.). Antiviral activities of compounds toward the recombinant virus were quantified by measuring luciferase activity in MT-2 cells infected for 4-5 days with the recombinant virus in the presence of serial dilutions of the compound.
# The 50% effective concentration (EC50) was calculated by using the exponential form of the median effect equation where (Fa)=1/[1+(EC50/drug conc.)m] (Johnson V A, Byington RT. Infectivity Assay. In Techniques in HIV Research, ed. Aldovini A, Walker B D. 71-76. New York: Stockton Press. 1990). The 50% inhibitory concentration (EC50) was calculated by using the exponential form of the median effect equation where percent inhibition=1/[1+(EC50/drug concentration)m], where m is a parameter that reflects the slope of the concentration-response curve.
Compound,CC50 at 4 days [1] [nM],EC50 [2] [nM]
"Cn1nc(NS(C)(=O)=O)c2c(Cl)ccc(-n3c([C@H](Cc4cc(F)cc(F)c4)NC(=O)Cn4nc(C(F)F)c5c4C(F)(F)[C@@H]4C[C@H]54)nc4nc(N5CCO[C@H](C(F)(F)F)C5)ccc4c3=O)c21 (atropisomer, axis not shown; (P)) [Example 11, N—((S)-1-((3P)-3-(4-chloro-1-methyl-3-(methylsulfonamido)-1H-indazol-7-yl)-4-oxo-7-((S)-2-(trifluoromethyl)morpholino)-3,4-dihydropyrido[2,3-d]pyrimidin-2-yl)-2-(3,5-difluorophenyl)ethyl)-2-((3bS,4aR)-3-(difluoromethyl)-5,5-difluoro-3b,4,4a,5-tetrahydro-1H-cyclopropa[3,4]cyclopenta[1,2-c]pyrazol-1-yl)acetamide]",> 100,0.019
"Cn1nc(NS(C)(=O)=O)c2c(Cl)ccc(-n3c([C@H](Cc4cc(F)cc(F)c4)NC(=O)Cn4nc(C(F)F)c5c4C(F)(F)[C@@H]4C[C@H]54)nc4nc(N5CCO[C@@H](C(F)(F)F)C5)ccc4c3=O)c21 (atropisomer, axis not shown; (P)) [Example 12, N—((S)-1-((3P)-3-(4-chloro-1-methyl-3-(methylsulfonamido)-1H-indazol-7-yl)-4-oxo-7-((R)-2-(trifluoromethyl)morpholino)-3,4-dihydropyrido[2,3-d]pyrimidin-2-yl)-2-(3,5-difluorophenyl)ethyl)-2-((3bS,4aR)-3-(difluoromethyl)-5,5-difluoro-3b,4,4a,5-tetrahydro-1H-cyclopropa[3,4]cyclopenta[1,2-c]pyrazol-1-yl)acetamide]",> 100,0.02
"Cn1nc(NS(C)(=O)=O)c2c(Cl)ccc(-n3c([C@H](Cc4cc(F)cc(F)c4)NC(=O)Cn4nc(C(F)F)c5c4C(F)(F)[C@@H]4C[C@H]54)nc4nc(N(CCC(F)(F)F)C5CCC5)ccc4c3=O)c21 (atropisomer, axis not shown; (P)) [Example 13, N—((S)-1-((3P)-3-(4-chloro-1-methyl-3-(methylsulfonamido)-1H-indazol-7-yl)-7-(cyclobutyl(3,3,3-trifluoropropyl)amino)-4-oxo-3,4-dihydropyrido[2,3-d]pyrimidin-2-yl)-2-(3,5-difluorophenyl)ethyl)-2-((3bS,4aR)-3-(difluoromethyl)-5,5-difluoro-3b,4,4a,5-tetrahydro-1H-cyclopropa[3,4]cyclopenta[1,2-c]pyrazol-1-yl)acetamide]",> 100,0.068
"Cn1nc(NS(C)(=O)=O)c2c(Cl)ccc(-n3c([C@H](Cc4cc(F)cc(F)c4)NC(=O)Cn4nc(C(F)F)c5c4C(F)(F)[C@@H]4C[C@H]54)nc4nc(N(CCC(F)(F)F)CC5CC5)ccc4c3=O)c21 (atropisomer, axis not shown; (P)) [Example 14, N—((S)-1-((3P)-3-(4-chloro-1-methyl-3-(methylsulfonamido)-1H-indazol-7-yl)-7-((cyclopropylmethyl)(3,3,3-trifluoropropyl)amino)-4-oxo-3,4-dihydropyrido[2,3-d]pyrimidin-2-yl)-2-(3,5-difluorophenyl)ethyl)-2-((3bS,4aR)-3-(difluoromethyl)-5,5-difluoro-3b,4,4a,5-tetrahydro-1H-cyclopropa[3,4]cyclopenta[1,2-c]pyrazol-1-yl)acetamide]",> 100,0.11
"C[C@@H]1CN(c2ccc3c(=O)n(-c4ccc(Cl)c5c(NS(C)(=O)=O)nn(C)c45)c([C@H](Cc4cc(F)cc(F)c4)NC(=O)Cc4ccn(C5CC5)n4)nc3n2)C[C@H](C)O1 (atropisomer, axis not shown; (P)) [Example 15, N—((S)-1-((3P)-3-(4-chloro-1-methyl-3-(methylsulfonamido)-1H-indazol-7-yl)-7-((2S,6R)-2,6-dimethylmorpholino)-4-oxo-3,4-dihydropyrido[2,3-d]pyrimidin-2-yl)-2-(3,5-difluorophenyl)ethyl)-2-(1-cyclopropyl-1H-pyrazol-3-yl)acetamide]",> 100,0.11
